# Where a name gives a salt, the structure may show the parent alone.
# Test system: MPTP-lesioned, L-DOPA-naïve cynomolgus monkeys
# Assay: In vivo evaluation of implants vs pulsatile subcutaneous injections ("ON" status, dyskinesia)
structure (smiles),measurement,setting,value
"CN1CCc2cccc3c2[C@H]1Cc1ccc(O)c(O)c1-3 [apomorphine, Apomorphine HCl]","minimally-effective dose to achieve ""ON"" status",daily subcutaneous injection,0.2 mg/kg
same,time to development of dyskinesias,"daily subcutaneous injections, 0.2 mg/kg, range 7-10",8.3 days
same,development of dyskinesia,"duration of treatment up to six months for implants, daily injections 0.2 mg/kg",all animals in the pulsatile injection group developed dyskinesias
same,"duration of ""ON"" state after each administration","pulsatile daily subcutaneous injections, 0.2 mg/kg",approximately 90 minutes

# From US9278163B2, “Implantable polymeric device for sustained release of dopamine agonist” (Titan Pharmaceuticals, Inc., priority 2003, dated 2016)
